Test results reported in patent US8338608B2, “Inhibitors of ion channels” (Icagen Inc., priority 2005, dated 2012).
pIC50: −log10 of the molar value. Read-outs that look alike come from different tables or passages of the source.

Assays:
hSCN3A = molecular target: T1, hSCN3A (Homo sapiens, UniProt Q9NY46); assay: SCN3A inhibitory activity in HEK cells stably expressing hSCN3A (whole-cell patch clamp / radiotracer efflux HTS); assay type: cell-based
T1 construct: expressed in transfected cells

[1] = 'as little as only'; cited from earlier work
Nav1.2 = Nav1.2 (Homo sapiens, UniProt Q99250); conditions: read-out: TTX IC-50; cited from earlier work
Nav1.3 = Nav1.3 (Homo sapiens, UniProt Q9NY46); conditions: read-out: TTX IC-50; cited from earlier work
Sequence of Nav1.3 (Q9NY46 whole entry, looked up): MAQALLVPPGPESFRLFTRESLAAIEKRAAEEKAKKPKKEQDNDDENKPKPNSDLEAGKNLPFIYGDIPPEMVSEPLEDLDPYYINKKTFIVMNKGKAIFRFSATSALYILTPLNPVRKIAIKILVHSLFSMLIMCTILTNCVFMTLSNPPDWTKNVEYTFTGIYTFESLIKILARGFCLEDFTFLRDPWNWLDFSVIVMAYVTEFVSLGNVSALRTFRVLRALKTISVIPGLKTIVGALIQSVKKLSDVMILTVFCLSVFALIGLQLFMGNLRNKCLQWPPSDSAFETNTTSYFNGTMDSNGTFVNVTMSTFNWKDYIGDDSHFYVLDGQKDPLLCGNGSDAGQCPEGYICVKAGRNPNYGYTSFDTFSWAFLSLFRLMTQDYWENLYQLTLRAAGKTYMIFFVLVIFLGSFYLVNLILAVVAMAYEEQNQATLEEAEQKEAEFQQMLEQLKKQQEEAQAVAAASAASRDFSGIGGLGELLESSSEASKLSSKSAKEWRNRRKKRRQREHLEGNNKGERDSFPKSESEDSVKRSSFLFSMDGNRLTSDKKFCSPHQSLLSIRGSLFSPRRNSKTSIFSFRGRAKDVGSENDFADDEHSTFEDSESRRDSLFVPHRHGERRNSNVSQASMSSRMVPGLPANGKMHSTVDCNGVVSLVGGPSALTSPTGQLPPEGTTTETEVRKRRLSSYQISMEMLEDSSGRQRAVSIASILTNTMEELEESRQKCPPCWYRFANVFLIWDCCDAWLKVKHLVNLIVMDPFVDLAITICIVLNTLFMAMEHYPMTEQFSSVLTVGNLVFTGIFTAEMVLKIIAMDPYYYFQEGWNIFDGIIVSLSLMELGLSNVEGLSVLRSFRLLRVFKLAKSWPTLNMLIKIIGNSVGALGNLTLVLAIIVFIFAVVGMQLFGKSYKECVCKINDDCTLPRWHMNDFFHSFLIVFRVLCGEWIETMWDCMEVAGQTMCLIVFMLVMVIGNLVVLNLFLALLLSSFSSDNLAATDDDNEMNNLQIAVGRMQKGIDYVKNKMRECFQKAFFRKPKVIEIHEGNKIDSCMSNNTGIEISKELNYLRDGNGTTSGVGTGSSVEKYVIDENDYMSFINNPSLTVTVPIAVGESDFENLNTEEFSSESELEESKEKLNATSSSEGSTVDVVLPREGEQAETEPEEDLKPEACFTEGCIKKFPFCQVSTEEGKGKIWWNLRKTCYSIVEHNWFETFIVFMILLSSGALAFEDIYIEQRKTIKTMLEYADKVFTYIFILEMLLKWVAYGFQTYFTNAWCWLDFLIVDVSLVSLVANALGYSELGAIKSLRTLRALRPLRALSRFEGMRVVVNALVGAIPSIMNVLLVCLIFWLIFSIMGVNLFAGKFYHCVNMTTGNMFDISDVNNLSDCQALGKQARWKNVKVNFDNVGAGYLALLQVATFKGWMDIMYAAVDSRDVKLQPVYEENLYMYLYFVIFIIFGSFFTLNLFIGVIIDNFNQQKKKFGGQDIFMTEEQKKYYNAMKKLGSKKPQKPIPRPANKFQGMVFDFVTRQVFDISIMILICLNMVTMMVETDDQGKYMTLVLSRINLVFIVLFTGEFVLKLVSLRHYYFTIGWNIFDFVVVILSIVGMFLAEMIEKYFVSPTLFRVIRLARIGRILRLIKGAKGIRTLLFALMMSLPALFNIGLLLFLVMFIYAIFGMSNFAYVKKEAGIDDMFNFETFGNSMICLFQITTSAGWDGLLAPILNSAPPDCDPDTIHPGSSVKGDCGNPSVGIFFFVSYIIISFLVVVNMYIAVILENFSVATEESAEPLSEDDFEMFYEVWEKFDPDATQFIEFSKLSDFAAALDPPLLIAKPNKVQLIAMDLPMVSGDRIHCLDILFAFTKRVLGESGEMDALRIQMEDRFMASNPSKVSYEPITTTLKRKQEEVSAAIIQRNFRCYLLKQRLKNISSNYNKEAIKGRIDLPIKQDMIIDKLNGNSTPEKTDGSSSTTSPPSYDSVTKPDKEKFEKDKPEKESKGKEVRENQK

Nav1.1 = Nav1.1 (Homo sapiens, UniProt P35498); conditions: read-out: TTX IC-50; cited from earlier work
Nav1.6 = Nav1.6 (Homo sapiens, UniProt Q9UQD0); conditions: read-out: TTX IC-50; cited from earlier work
Nav1.9 = Nav1.9 (Homo sapiens, UniProt Q9UI33); conditions: read-out: TTX IC-50; cited from earlier work
Nav1.8 = Nav1.8 (Homo sapiens, UniProt Q9Y5Y9); conditions: read-out: TTX IC-50; cited from earlier work
Sequence of Nav1.8 (Q9Y5Y9 whole entry, looked up): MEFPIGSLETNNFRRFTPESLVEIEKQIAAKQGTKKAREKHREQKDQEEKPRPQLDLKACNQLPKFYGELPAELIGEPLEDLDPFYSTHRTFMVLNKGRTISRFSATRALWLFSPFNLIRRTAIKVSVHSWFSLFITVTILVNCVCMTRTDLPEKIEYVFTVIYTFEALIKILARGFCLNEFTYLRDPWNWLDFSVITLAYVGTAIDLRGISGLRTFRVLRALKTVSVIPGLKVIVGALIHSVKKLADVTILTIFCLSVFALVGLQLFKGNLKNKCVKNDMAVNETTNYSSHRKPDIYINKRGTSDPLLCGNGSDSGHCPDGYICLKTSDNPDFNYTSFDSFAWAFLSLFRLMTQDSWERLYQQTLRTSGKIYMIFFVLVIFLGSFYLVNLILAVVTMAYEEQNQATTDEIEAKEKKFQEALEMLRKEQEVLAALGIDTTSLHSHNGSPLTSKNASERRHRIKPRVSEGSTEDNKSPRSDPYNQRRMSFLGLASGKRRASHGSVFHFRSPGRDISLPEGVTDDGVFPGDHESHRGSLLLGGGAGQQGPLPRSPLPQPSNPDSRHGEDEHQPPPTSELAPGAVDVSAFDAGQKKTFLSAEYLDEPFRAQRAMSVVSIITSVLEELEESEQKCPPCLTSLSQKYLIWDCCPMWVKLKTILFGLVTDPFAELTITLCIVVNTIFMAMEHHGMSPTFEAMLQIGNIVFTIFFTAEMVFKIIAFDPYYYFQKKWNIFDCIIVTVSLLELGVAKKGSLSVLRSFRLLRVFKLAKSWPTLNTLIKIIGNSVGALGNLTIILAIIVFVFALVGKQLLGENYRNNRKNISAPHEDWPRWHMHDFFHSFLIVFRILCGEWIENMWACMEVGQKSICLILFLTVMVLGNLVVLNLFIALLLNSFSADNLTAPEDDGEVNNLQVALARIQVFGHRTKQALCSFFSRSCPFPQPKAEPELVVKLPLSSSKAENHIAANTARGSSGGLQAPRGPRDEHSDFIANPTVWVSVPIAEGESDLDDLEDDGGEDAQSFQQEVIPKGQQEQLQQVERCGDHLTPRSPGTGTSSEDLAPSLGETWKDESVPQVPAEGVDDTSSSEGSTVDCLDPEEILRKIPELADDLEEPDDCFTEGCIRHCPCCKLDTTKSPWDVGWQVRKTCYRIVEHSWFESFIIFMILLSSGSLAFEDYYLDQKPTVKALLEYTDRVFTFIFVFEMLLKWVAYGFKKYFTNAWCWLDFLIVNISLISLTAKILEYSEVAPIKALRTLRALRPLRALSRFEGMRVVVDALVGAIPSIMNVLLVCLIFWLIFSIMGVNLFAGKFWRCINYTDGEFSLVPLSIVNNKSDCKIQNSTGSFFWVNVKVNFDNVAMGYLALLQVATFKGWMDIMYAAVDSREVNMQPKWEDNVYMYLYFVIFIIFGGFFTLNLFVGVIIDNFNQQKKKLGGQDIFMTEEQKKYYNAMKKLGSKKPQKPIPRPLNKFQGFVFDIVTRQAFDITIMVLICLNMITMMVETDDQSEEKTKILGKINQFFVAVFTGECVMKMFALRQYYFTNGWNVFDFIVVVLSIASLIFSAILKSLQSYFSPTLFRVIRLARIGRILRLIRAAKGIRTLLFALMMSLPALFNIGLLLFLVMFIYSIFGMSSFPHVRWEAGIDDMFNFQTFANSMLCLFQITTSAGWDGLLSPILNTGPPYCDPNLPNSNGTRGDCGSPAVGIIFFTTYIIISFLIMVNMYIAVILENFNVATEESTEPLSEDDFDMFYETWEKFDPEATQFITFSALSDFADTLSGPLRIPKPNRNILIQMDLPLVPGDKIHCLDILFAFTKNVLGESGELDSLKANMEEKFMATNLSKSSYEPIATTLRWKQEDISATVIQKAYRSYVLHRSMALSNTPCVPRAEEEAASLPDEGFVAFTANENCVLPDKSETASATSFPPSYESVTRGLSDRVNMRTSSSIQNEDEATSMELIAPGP

[2] = HEK cells stably transfected with hSCN3A, read-out: SCN3A Inhibitory Activity

T1 sequence (Q9NY46 whole entry): as the sequence (Q9NY46 whole entry, looked up) above

## O=S(=O)(Nc1nccs1)c1ccc(NS(=O)(=O)N2CCN(c3ccc(Cl)c(Cl)c3)CC2)cc1 [Compound 23, 4-(3,4-Dichloro-phenyl)-piperazine-1-sulfonic acid [4-(thiazol-2-ylsulfamoyl)-phenyl]-amide]
hSCN3A; [2]
  pIC50: 6.30 to 7.00

## CC(C)(C)c1ccc(OCCNS(=O)(=O)c2ccc(S(=O)(=O)Nc3ncc(Cl)s3)cc2)cc1 [Compound 6, Benzene-1,4-disulfonic acid 1-{[2-(4-tert-butyl-phenoxy)-ethyl]-amide} 4-[(5-chloro-thiazol-2-yl)-amide]]
hSCN3A; [2]
  pIC50: > 7.00

## O=S(=O)(Nc1nccs1)c1ccc(S(=O)(=O)N2CCC(Cc3ccc(Cl)cc3)CC2)cc1 [Compound 29, 4-[4-(4-Chloro-benzyl)-piperidine-1-sulfonyl]-N-thiazol-2-yl-benzenesulfonamide]
hSCN3A; [2]
  pIC50: 6.30 to 7.00

## O=S(=O)(NCC(c1ccccc1)c1ccccc1)Nc1ccc(S(=O)(=O)Nc2nccs2)cn1 [Compound 45]
hSCN3A; [2]
  pIC50: < 6.00

## O=S(=O)(NCC1COc2cc(Cl)c(Cl)cc2O1)c1ccc(S(=O)(=O)Nc2nccs2)cc1 (centres unmarked) [Compound 9, Benzene-1,4-disulfonic acid 1-[(6,7-dichloro-2,3-dihydro-benzo[1,4]dioxin-2-ylmethyl)-amide] 4-thiazol-2-ylamide]
hSCN3A; [2]
  pIC50: > 7.00

## O=S(=O)(NCCOc1ccc(Cl)cc1F)c1ccc(S(=O)(=O)Nc2nccs2)cc1 [Compound 34, Benzene-1,4-disulfonic acid 1-{[2-(4-chloro-2-fluoro-phenoxy)-ethyl]-amide} 4-thiazol-2-ylamide]
hSCN3A; [2]
  pIC50: 6.30 to 7.00

## O=S(=O)(Nc1nccs1)c1ccc(S(=O)(=O)N2CC(COc3cccc(Cl)c3)C2)cc1 [Compound 36, 4-[3-(3-Chloro-phenoxymethyl)-azetidine-1-sulfonyl]-N-thiazol-2-yl-benzenesulfonamide]
hSCN3A
  pIC50: 6.30 to 7.00

## O=S(=O)(Nc1nccs1)c1ccc(S(=O)(=O)NC2CCCCCC2)cc1 [Compound 30, Benzene-1,4-disulfonic acid 1-cycloheptylamide 4-thiazol-2-ylamide]
hSCN3A; [2]
  pIC50: 6.30 to 7.00

## O=S(=O)(NCc1ccc(C(F)(F)F)cc1)c1ccc(S(=O)(=O)Nc2ncc(Cl)s2)cc1 [Compound 15, Benzene-1,4-disulfonic acid 1-[(5-chloro-thiazol-2-yl)-amide] 4-(4-trifluoromethyl-benzylamide)]
hSCN3A; [2]
  pIC50: > 7.00

## O=S(=O)(Nc1nccs1)c1ccc(S(=O)(=O)N2CCC[C@H]2COc2ccc(Cl)cc2)cc1 [Compound 19, 4-[(S)-2-(4-chloro-phenoxymethyl)-pyrrolidine-1-sulfonyl]-N-thiazol-2-yl-benzenesulfonamide]
hSCN3A; [2]
  pIC50: > 7.00

## NCC1(CC(=O)O)CCCCC1 [gabapentin]
[1]
  patients respond to gabapentin treatment for neuropathic pain: 30%

## CN(CCOc1ccc(C(C)(C)C)cc1)S(=O)(=O)c1ccc(S(=O)(=O)Nc2nccs2)cc1 [Compound 35, Benzene-1,4-disulfonic acid 1-{[2-(4-tert-butyl-phenoxy)-ethyl]-methyl-amide} 4-thiazol-2-ylamide]
hSCN3A; [2]
  pIC50: 6.30 to 7.00

## O=S(=O)(NCCCOc1ccc(Cl)cc1)c1ccc(S(=O)(=O)Nc2ncc(Cl)s2)cc1 [Compound 12, Benzene-1,4-disulfonic acid 1-{[3-(4-chloro-phenoxy)-propyl]-amide} 4-[(5-chloro-thiazol-2-yl)-amide]]
hSCN3A; [2]
  pIC50: > 7.00

## O=S(=O)(Nc1ccc(S(=O)(=O)Nc2nccs2)cc1)N[C@@H]1C[C@H]1c1ccccc1 (relative stereo) [Compound 4, N-(trans-2-phenylcyclopropyl)-N′-[4-(N-thiazol-2-yl-sulfonamyl)-phenyl]-sulfamide]
hSCN3A; [2]
  pIC50: > 7.00

## O=S(=O)(Nc1ncc(Cl)s1)c1ccc(S(=O)(=O)N2CC(Oc3ncc(C(F)(F)F)cc3Cl)C2)cc1 [Compound 26, N-(5-chloro-thiazol-2-yl)-4-[3-(3-chloro-5-trifluoromethyl-pyridin-2-yloxy)-azetidine-1-sulfonyl]-benzenesulfonamide]
hSCN3A; [2]
  pIC50: 6.30 to 7.00

## O=S(=O)(NCCc1ccc(Oc2ccccc2)cc1)Nc1ccc(S(=O)(=O)Nc2nccs2)cc1 [Compound 5, N-[2-(4-phenoxyl-phenyl)-ethyl]-N′-[4-(N-thiazol-2-yl-sulfonamyl)-phenyl]-sulfamide]
hSCN3A; [2]
  pIC50: > 7.00

## O=S(=O)(NCCc1ccc(Cl)cc1)c1ccc(S(=O)(=O)Nc2nccs2)cc1 [Compound 27, Benzene-1,4-disulfonic acid 1-{[2-(4-chloro-phenyl)-ethyl]-amide} 4-thiazol-2-ylamide]
hSCN3A; [2]
  pIC50: 6.30 to 7.00

## NC1=N[C@H](O)[C@H]2[C@H]3O[C@]4(O)O[C@@H]([C@@H](O)[C@@]2(N1)[C@@H]4O)[C@]3(O)CO [TTX, tetrodotoxin]
Nav1.2
  pIC50: 8.00
Nav1.3
  pIC50: 7.82
Nav1.1
  pIC50: 8.00
Nav1.6
  pIC50: 8.22
Nav1.9
  pIC50: 6.00
Nav1.8
  pIC50: 4.30

## O=S(=O)(NCC(c1ccccc1)c1ccccc1)Nc1ccc(S(=O)(=O)Nc2nccs2)cc1 [Compound 1]
hSCN3A; [2]
  pIC50: > 7.00

## COc1ccc(CNS(=O)(=O)c2ccc(S(=O)(=O)Nc3nccs3)cc2)cc1Cl [Compound 37, Benzene-1,4-disulfonic acid 1-(3-chloro-4-methoxy-benzylamide) 4-thiazol-2-ylamide]
hSCN3A; [2]
  pIC50: 6.30 to 7.00

## CN(CCc1ccccc1)S(=O)(=O)c1ccc(S(=O)(=O)Nc2nccs2)cc1 [Compound 47, Benzene-1,4-disulfonic acid 1-(methyl-phenethyl-amide) 4-thiazol-2-ylamide]
hSCN3A; [2]
  pIC50: < 6.00
